Measurements taken from the NIST ThermoML archive (doi:10.1007/s10765-014-1730-1).

Conditions: Vibrating tube method; for mass density: Liquid; for specific volume: Gas

F/C=C\C(F)(F)F [(Z)-1,3,3,3-tetrafluoro-1-propene]
Conditions | mass density [kg/m3] | specific volume [m3/kg]
283.15 K, 19923 kPa | 1312.8 | –
283.15 K, 30988 kPa | 1335.2 | –
283.16 K, 188 kPa | 1262.2 | –
283.16 K, 714 kPa | 1263.9 | –
283.16 K, 1728 kPa | 1266.9 | –
283.16 K, 2742 kPa | 1270 | –
283.16 K, 3759 kPa | 1273 | –
283.16 K, 4785 kPa | 1275.9 | –
283.16 K, 5794 kPa | 1278.6 | –
283.16 K, 6808 kPa | 1281.4 | –
283.16 K, 7810 kPa | 1284.1 | –
283.16 K, 8829 kPa | 1286.8 | –
283.16 K, 9831 kPa | 1289.3 | –
283.16 K, 10842 kPa | 1291.8 | –
283.16 K, 11848 kPa | 1294.3 | –
283.16 K, 12862 kPa | 1296.7 | –
283.16 K, 13869 kPa | 1299.3 | –
283.16 K, 14880 kPa | 1301.5 | –
283.16 K, 15887 kPa | 1304 | –
283.16 K, 16901 kPa | 1306.2 | –
283.16 K, 17911 kPa | 1308.5 | –
283.16 K, 18920 kPa | 1310.8 | –
283.16 K, 20928 kPa | 1315.1 | –
283.16 K, 21929 kPa | 1317.3 | –
283.16 K, 22938 kPa | 1319.3 | –
283.16 K, 23940 kPa | 1321.4 | –
283.16 K, 24945 kPa | 1323.4 | –
283.16 K, 25950 kPa | 1325.4 | –
283.16 K, 26964 kPa | 1327.4 | –
283.16 K, 27969 kPa | 1329.6 | –
283.16 K, 28981 kPa | 1331.5 | –
283.16 K, 29981 kPa | 1333.4 | –
283.16 K, 32001 kPa | 1337.1 | –
283.16 K, 33010 kPa | 1339 | –
283.16 K, 34026 kPa | 1340.8 | –
293.14 K, 707 kPa | 1238 | –
293.14 K, 3747 kPa | 1248.2 | –
293.14 K, 6783 kPa | 1257.5 | –
293.14 K, 8789 kPa | 1263.5 | –
293.14 K, 21891 kPa | 1296.5 | –
293.14 K, 22907 kPa | 1298.7 | –
293.14 K, 23918 kPa | 1301 | –
293.14 K, 24927 kPa | 1303.2 | –
293.14 K, 31982 kPa | 1317.6 | –
293.15 K, 202 kPa | 1236.1 | –
293.15 K, 1711 kPa | 1241.3 | –
293.15 K, 2717 kPa | 1244.8 | –
293.15 K, 4772 kPa | 1251.4 | –
293.15 K, 5777 kPa | 1254.5 | –
293.15 K, 7789 kPa | 1260.4 | –
293.15 K, 9806 kPa | 1266.1 | –
293.15 K, 10808 kPa | 1269.1 | –
293.15 K, 11817 kPa | 1271.7 | –
293.15 K, 12827 kPa | 1274.3 | –
293.15 K, 13836 kPa | 1277 | –
293.15 K, 14850 kPa | 1279.6 | –
293.15 K, 15856 kPa | 1282.1 | –
293.15 K, 16856 kPa | 1284.7 | –
293.15 K, 17859 kPa | 1287 | –
293.15 K, 18869 kPa | 1289.6 | –
293.15 K, 19873 kPa | 1292 | –
293.15 K, 20882 kPa | 1294.3 | –
293.15 K, 25932 kPa | 1305.2 | –
293.15 K, 26941 kPa | 1307.2 | –
293.15 K, 27957 kPa | 1309.7 | –
293.15 K, 28963 kPa | 1311.6 | –
293.15 K, 29972 kPa | 1313.7 | –
293.15 K, 30977 kPa | 1315.7 | –
293.15 K, 32993 kPa | 1319.5 | –
293.15 K, 33996 kPa | 1321.6 | –
303.15 K, 82.1 kPa | – | 0.259
303.15 K, 113.7 kPa | – | 0.185
303.15 K, 184.2 kPa | – | 0.111
303.15 K, 190.7 kPa | – | 0.107
303.15 K, 1705 kPa | 1215.3 | –
303.15 K, 3735 kPa | 1222.8 | –
303.15 K, 4759 kPa | 1226.3 | –
303.15 K, 7774 kPa | 1236.5 | –
303.15 K, 8779 kPa | 1239.7 | –
303.15 K, 10782 kPa | 1245.9 | –
303.15 K, 12803 kPa | 1251.9 | –
303.15 K, 13813 kPa | 1254.8 | –
303.15 K, 14822 kPa | 1257.6 | –
303.15 K, 15833 kPa | 1260.3 | –
303.15 K, 16844 kPa | 1263 | –
303.15 K, 17858 kPa | 1265.7 | –
303.15 K, 18870 kPa | 1268.3 | –
303.15 K, 19882 kPa | 1270.9 | –
303.15 K, 20888 kPa | 1273.4 | –
303.15 K, 21903 kPa | 1275.9 | –
303.15 K, 22911 kPa | 1278.3 | –
303.15 K, 23920 kPa | 1280.7 | –
303.15 K, 24935 kPa | 1283 | –
303.15 K, 25951 kPa | 1285.4 | –
303.15 K, 26951 kPa | 1287.7 | –
303.15 K, 27967 kPa | 1289.9 | –
303.15 K, 28968 kPa | 1292.1 | –
303.15 K, 29985 kPa | 1294.3 | –
303.15 K, 30991 kPa | 1296.4 | –
303.15 K, 31993 kPa | 1298.6 | –
303.15 K, 32995 kPa | 1300.6 | –
303.15 K, 34000 kPa | 1302.7 | –
303.16 K, 217 kPa | 1209.4 | –
303.16 K, 692 kPa | 1211.4 | –
303.16 K, 2712 kPa | 1219.1 | –
303.16 K, 5769 kPa | 1229.9 | –
303.16 K, 6772 kPa | 1233.2 | –
303.16 K, 9780 kPa | 1242.9 | –
303.16 K, 11794 kPa | 1249 | –
308.15 K, 83.4 kPa | – | 0.259
308.15 K, 115.8 kPa | – | 0.185
308.15 K, 187.8 kPa | – | 0.111
308.15 K, 194.6 kPa | – | 0.107
308.15 K, 215.4 kPa | – | 0.095
313.15 K, 84.9 kPa | – | 0.259
313.15 K, 117.9 kPa | – | 0.185
313.15 K, 191.5 kPa | – | 0.111
313.15 K, 198.5 kPa | – | 0.107
313.15 K, 325 kPa | 1182 | –
313.15 K, 777 kPa | 1184 | –
313.15 K, 1789 kPa | 1188.5 | –
313.15 K, 2791 kPa | 1192.7 | –
313.15 K, 3819 kPa | 1196.9 | –
313.15 K, 4846 kPa | 1201.1 | –
313.15 K, 5847 kPa | 1204.9 | –
313.15 K, 6862 kPa | 1208.7 | –
313.15 K, 7865 kPa | 1212.3 | –
313.15 K, 8867 kPa | 1215.8 | –
313.15 K, 9876 kPa | 1219.3 | –
313.15 K, 10884 kPa | 1222.7 | –
313.15 K, 11896 kPa | 1226 | –
313.15 K, 12909 kPa | 1229.2 | –
313.15 K, 13913 kPa | 1232.4 | –
313.15 K, 14924 kPa | 1235.4 | –
313.15 K, 15924 kPa | 1238.4 | –
313.15 K, 16925 kPa | 1241.4 | –
313.15 K, 17931 kPa | 1244.2 | –
313.15 K, 18933 kPa | 1247 | –
313.15 K, 19934 kPa | 1249.8 | –
313.15 K, 20940 kPa | 1252.5 | –
313.15 K, 21945 kPa | 1255.1 | –
313.15 K, 22953 kPa | 1257.8 | –
313.15 K, 23961 kPa | 1260.4 | –
313.15 K, 24962 kPa | 1262.9 | –
313.15 K, 25963 kPa | 1265.3 | –
313.15 K, 26966 kPa | 1267.7 | –
313.15 K, 27968 kPa | 1270.1 | –
313.15 K, 28969 kPa | 1272.5 | –
313.15 K, 29976 kPa | 1274.8 | –
313.15 K, 30978 kPa | 1277 | –
313.15 K, 31986 kPa | 1279.3 | –
313.15 K, 32992 kPa | 1281.6 | –
313.15 K, 34000 kPa | 1283.8 | –
313.16 K, 219.8 kPa | – | 0.095
315.15 K, 270.7 kPa | – | 0.076
318.15 K, 86.3 kPa | – | 0.26
318.15 K, 120 kPa | – | 0.185
318.15 K, 195.2 kPa | – | 0.111
318.15 K, 202.2 kPa | – | 0.107
318.15 K, 224 kPa | – | 0.095
320.15 K, 276.3 kPa | – | 0.076
323.14 K, 4763 kPa | 1174.1 | –
323.14 K, 16843 kPa | 1218.6 | –
323.14 K, 21889 kPa | 1233.7 | –
323.14 K, 29946 kPa | 1254.9 | –
323.14 K, 30956 kPa | 1257.3 | –
323.15 K, 87.8 kPa | – | 0.26
323.15 K, 122.1 kPa | – | 0.185
323.15 K, 198.9 kPa | – | 0.111
323.15 K, 206 kPa | – | 0.107
323.15 K, 228.3 kPa | – | 0.095
323.15 K, 363.2 kPa | – | 0.057
323.15 K, 392 kPa | 1153.1 | –
323.15 K, 686 kPa | 1154.6 | –
323.15 K, 1702 kPa | 1159.8 | –
323.15 K, 2712 kPa | 1164.7 | –
323.15 K, 3731 kPa | 1169.5 | –
323.15 K, 5778 kPa | 1178.4 | –
323.15 K, 6786 kPa | 1182.7 | –
323.15 K, 7786 kPa | 1186.7 | –
323.15 K, 8786 kPa | 1190.6 | –
323.15 K, 9791 kPa | 1194.4 | –
323.15 K, 10796 kPa | 1198.2 | –
323.15 K, 11803 kPa | 1201.8 | –
323.15 K, 12805 kPa | 1205.3 | –
323.15 K, 13812 kPa | 1208.8 | –
323.15 K, 14822 kPa | 1212.1 | –
323.15 K, 15831 kPa | 1215.4 | –
323.15 K, 17849 kPa | 1221.7 | –
323.15 K, 18857 kPa | 1224.9 | –
323.15 K, 19866 kPa | 1227.9 | –
323.15 K, 20875 kPa | 1230.8 | –
323.15 K, 22900 kPa | 1236.5 | –
323.15 K, 23908 kPa | 1239.3 | –
323.15 K, 24908 kPa | 1242 | –
323.15 K, 25914 kPa | 1244.6 | –
323.15 K, 26926 kPa | 1247.3 | –
323.15 K, 27933 kPa | 1249.8 | –
323.15 K, 28945 kPa | 1252.4 | –
323.15 K, 31966 kPa | 1259.8 | –
323.15 K, 32979 kPa | 1262.2 | –
323.15 K, 33992 kPa | 1264.5 | –
325.15 K, 281.9 kPa | – | 0.076
328.15 K, 89.2 kPa | – | 0.26
328.15 K, 124.1 kPa | – | 0.185
